{"source": "patent US20090062309A1", "about": "“Therapeutic compositions for the treatment of cardiovascular diseases and methods for use therefor” (priority 2007, published 2009)", "tested_on": "subjects with CHD having decreased RBC K+ content", "experiment": "Single-Blind Trial of Amiloride in Coronary Heart Disease During 2-Year Follow-Up", "format": "in vivo, human", "procedure": "Subjects were evaluated by clinical (CCS angina Class, dyspnea, and arrhythmia). Other non CHD causes of chest pain, dyspnea, and arrhythmia had been ruled out. Safety control were serial ECG, non-invasive hemodynamics (DynaPulse 200A, CA, USA), Ion Transport Study (plasma and RBC electrolytes, 12-hour urine volume and electrolyte excretion, and plasma and urine creatinine and osmolality), BIA for Body Composition Analysis and estimation of Total Body K^+ (Quantum X, RJL Systems), and Clinical Biochemistry (FPG, Lipids, Uric acid), were measured at 1, 3, 6, 12, 18, 24 months follow-up period.\nAfter written consent, each patient entered this single-blind trial directed to reverse or improve angina and other symptoms of CHD, as well as the ECG alterations of ischemia, and if possible in long-term assay, on improved LV motion/contractility in the echocardiography studies.\nAll cases had: a) Serial ECG for LVH by Cornell or Sokolow-Lyon Criteria (QRS duration times Cornell voltage: [R aVL+ SV3, with 6 mm added in women, >2440 mm×ms], Sokolow-Lyon voltage: [SV1+RV5/V6]> 38 mm; along with LV strain pattern [classical ST-segment depressed, with inverted T-waves], or LVH voltage criteria with mild LV strain pattern (isoelectric, biphasic or non-symmetrical negative T-waves, without ST-segment depression), and ECG criteria for infarction and/or ischemia (Q-waves from previous AMI, decreased R-wave height, non-progressive R-wave voltages in precordial leads, ST-segment elevation […] often referred as injury current, ST-segment depression […] often downsloping from the J point, rectification of the ST segment, and isoelectric, biphasic, negative or inverted T-waves, intraventricular conduction disturbance, and arrhythmias); b) Non-invasive hemodynamic study (DP200M) for cardiac parameters (LV Ejection Time [LVET], LV dP/dT (LV delta pressure-time), Cardiac output and index (CO, Cl), Stroke Volume (SV), Pulse Wave Analysis (PWA) of Central Aortic Blood Pressure [BP], Aortic Systolic (SBP), Diastolic (DBP) and mean (m) BP, Aortic augmentation index; inflection point and reflected wave analysis, Systemic Vascular Resistance and Compliance (SVR/SVC), and Brachial Artery Distensibility (BAD), Brachial Artery Compliance (BAC); c) Ion Transport Studies for RBC (K^+, Na^+) plasma (K^+, Na^+, Cl^−, ICa^2+, Mg^2+), and 12-hours night urinary volume (K^+, Na^+, Cl^−, pH), d) Bio-Impedance Analysis (BIA, Quantum X, RJL Systems, MI, USA) for Total body Potassium, Total body water/Extracellular Water, Fat Mass (FM) and Fat-Free Mass (FFM) and e) Echocardiography was obtained at entry, 6 and 12, 24 months periods.\nThe statistical analysis was performed using the Student's t-test and analysis of variance. To reduce the probability of significant differences arising by chance, Bonferroni's correction was applied following analysis of variance. All measurement are presented as the mean±S.D., and differences were considered significant when p<0.05.", "note": "Where “and” joins values, the source holds several entries; their conditions need not be identical. Equal values may be shown once. Entries after “also recorded” stand apart in the source; their conditions may differ.", "data": [{"smiles": "Cl.NC(N)=NC(=O)c1nc(Cl)c(N)nc1N.O.O", "note": "[Amiloride, 3,5-diamino-6-chloro-N-(diaminomethylene) pyrazinecarboxamide monohydrochloride, dihydrate]", "values": [{"measurement": "Days for Improvement, Percentage (%)", "setting": "2-year trial, n=52", "value": 86.5, "unit": "%"}, {"measurement": "EGG Alterations: Improved Changes, Number", "setting": "2-year trial, n=52", "value": 23}, {"measurement": "EGG Alterations: Improved Changes, Percentage (%)", "setting": "2-year trial, n=52", "value": 44.2, "unit": "%"}, {"measurement": "EGG Alterations: Reverted to Normal, Number", "setting": "2-year trial, n=52", "value": 18}, {"measurement": "EGG Alterations: Reverted to Normal, Percentage (%)", "setting": "2-year trial, n=52", "value": 34.5, "unit": "%"}, {"measurement": "EGG Alterations: Unchanged/Worst, Number", "setting": "2-year trial, n=52", "value": 10}, {"measurement": "EGG Alterations: Unchanged/Worst, Percentage (%)", "setting": "2-year trial, n=52", "value": 19.2, "unit": "%"}, {"measurement": "EGG Alterations: Weeks for Improvement", "setting": "2-year trial, n=52", "value": "3.4 ± 1.5", "unit": "Weeks"}, {"measurement": "EGG Alterations: Weeks for Improvement, Percentage (%)", "setting": "2-year trial, n=52", "value": 61, "unit": "%"}, {"measurement": "Echocardiographic Changes: Altered Hypokinesia, Number", "setting": "2-year trial, n=52", "value": 34}, {"measurement": "Echocardiographic Changes: Altered Hypokinesia, Percentage (%)", "setting": "2-year trial, n=52", "value": 65.5, "unit": "%"}, {"measurement": "Echocardiographic Changes: Normal Contractility, Number", "setting": "2-year trial, n=52", "value": 18}, {"measurement": "Echocardiographic Changes: Normal Contractility, Percentage (%)", "setting": "2-year trial, n=52", "value": 34.5, "unit": "%"}, {"measurement": "Echocardiographic Changes: Reversed Hypokinesia, Number", "setting": "2-year trial, n=52", "value": 27}, {"measurement": "Echocardiographic Changes: Reversed Hypokinesia, Percentage (%)", "setting": "2-year trial, n=52", "value": 52, "unit": "%"}, {"measurement": "Echocardiographic Changes: Unchanged Hypokinesia, Number", "setting": "2-year trial, n=52", "value": 7}, {"measurement": "Echocardiographic Changes: Unchanged Hypokinesia, Percentage (%)", "setting": "2-year trial, n=52", "value": 13.5, "unit": "%"}, {"measurement": "Free of Angina (1-2 years), Number", "setting": "2-year trial, n=52", "value": 37}, {"measurement": "Free of Angina (1-2 years), Percentage (%)", "setting": "2-year trial, n=52", "value": 71.2, "unit": "%"}, {"measurement": "New CVD Events: ACS, Number", "setting": "2-year trial, n=52", "value": 7}, {"measurement": "New CVD Events: ACS, Percentage (%)", "setting": "2-year trial, n=52", "value": 13.5, "unit": "%"}, {"measurement": "New CVD Events: AMI/Stroke/Death, Number", "setting": "2-year trial, n=52", "value": 0}, {"measurement": "New CVD Events: AMI/Stroke/Death, Percentage (%)", "setting": "2-year trial, n=52", "value": 0, "unit": "%"}, {"measurement": "New CVD Events: None, Number", "setting": "2-year trial, n=52", "value": 41}, {"measurement": "New CVD Events: None, Percentage (%)", "setting": "2-year trial, n=52", "value": 79, "unit": "%"}, {"measurement": "New CVD Events: Ventricular Arrhythmias, Number", "setting": "2-year trial, n=52", "value": 5}, {"measurement": "New CVD Events: Ventricular Arrhythmias, Percentage (%)", "setting": "2-year trial, n=52", "value": 9.6, "unit": "%"}, {"measurement": "Reversion of Angina, Number", "setting": "2-year trial, n=52", "value": 43}, {"measurement": "Reversion of Angina, Percentage (%)", "setting": "2-year trial, n=52", "value": 82.7, "unit": "%"}, {"measurement": "Subjects with Angina: Days for Improvement", "setting": "2-year trial, n=52, Amiloride 5 to 10 mg/day", "value": "6.2 ± 3.5", "unit": "days"}, {"measurement": "ECG change, single subject FIG. 14A", "setting": "Diabetic, inferior AMI, during admission in the Amiloride trial", "value": "improvement in the subject's antero-lateral ischemia"}, {"measurement": "ECG after withdrawal, single subject FIG. 14B", "setting": "Diabetic, two months after withdrawal of Amiloride treatment", "value": "ECG alterations marked with arrows indicative of acute coronary syndrome and ventricular arrhythmias"}, {"measurement": "ECG change, single subject FIG. 12B", "setting": "Person, 1-year post infarction, 5 months Amiloride, calcium and statins", "value": "significant ECG improvement of ST-segment, and T-waves (V1-V6)"}, {"measurement": "ECG, single subject FIG. 12C", "setting": "Person, 18 months post AMI, Amiloride, calcium and statins, no other medication", "value": "essentially a normal ECG trace"}, {"measurement": "Duke Treadmill Scores, single subject FIG. 12C", "setting": "Person, 18 months post AMI, Amiloride, calcium and statins, monohydrochloride, dihydrate", "value": "6.23 and 5.49"}, {"measurement": "ECG change, single subject FIG. 13B", "setting": "Person, diabetes, angina, 5-months of Amiloride and statins", "value": "improvement of ischemic changes"}, {"measurement": "DT Score, single subject FIG. 13B", "setting": "Person, 5-months of Amiloride and statins, score −3 before", "value": 2.3}, {"measurement": "ECG after withdrawal, single subject FIG. 13C", "setting": "Person, after 6-months without Amiloride, optimal angina and diabetes medications", "value": "recurrence of ECG alterations"}, {"measurement": "ECG after re-start, single subject FIG. 13C", "setting": "Person, three months after Amiloride was reinitiated", "value": "normal without ischemic changes"}, {"measurement": "ECG change, single subject FIG. 11C", "setting": "person, infarction, angina, heart failure, 2-months Amiloride (5 mg) and calcium plus other medications", "value": "rapid reversion of ST-T alterations (V2-V6)"}, {"measurement": "angina and heart failure symptoms, single subject FIG. 11C", "setting": "person, 2-months Amiloride (5 mg) and calcium, monohydrochloride, dihydrate", "value": "free of angina or symptoms of heart failure; also recorded: free of angina and symptoms of heart failure"}, {"measurement": "Duke Treadmill Score, single subject FIG. 11C", "setting": "person, 2-months Amiloride (5 mg) and calcium, score −3 before entering trial", "value": "+4.3"}]}]}
